Results as given in BigSolDB 2.1.

CC1=C[C@H](O)CC(C)(C)[C@H]1/C=C/C(C)=C/C=C/C(C)=C/C=C/C=C(C)/C=C/C=C(C)/C=C/C1=C(C)C[C@@H](O)CC1(C)C
solubility (mole fraction)
Conditions	278.15 K	283.15 K	288.15 K	293.15 K	298.15 K	303.15 K	308.15 K	313.15 K	318.15 K	323.15 K
in ethanol	1.75e-05	1.96e-05	2.27e-05	2.63e-05	3.16e-05	3.75e-05	4.48e-05	5.32e-05	6.42e-05	7.72e-05
in ethylene glycol	2.68e-07	3.03e-07	3.48e-07	3.89e-07	4.43e-07	5.17e-07	6.12e-07	7.13e-07	8.45e-07	9.61e-07
in isopropanol	9.74e-07	1.03e-06	1.1e-06	1.18e-06	1.27e-06	1.39e-06	1.51e-06	1.67e-06	1.86e-06	2.13e-06
in methanol	2.31e-05	2.84e-05	3.77e-05	4.91e-05	6.72e-05	8.41e-05	0.000107	0.000134	0.000166	0.000207
